Measurements: the NIST ThermoML archive (doi:10.1016/j.jct.2014.05.014)

Assay: refractive index (Na D-line) (dimensionless); cn = amount concentration of the nth substance listed, in mol/dm3
Conditions: 101.3 kPa, Liquid, Standard Abbe refractometry

CC(N)C(=O)[O-].[Na+] (stereo not drawn) [sodium DL-alaninate] + O
refractive index
Conditions | 303.15 K | 308.15 K | 313.15 K | 318.15 K | 323.15 K | 328.15 K | 333.15 K | 338.15 K | 343.15 K
c1 = 0.498 | 1.3409 | 1.34021 | 1.33945 | 1.33864 | 1.33778 | 1.33688 | 1.33592 | 1.3349 | 1.33388
c1 = 0.99 | 1.34952 | 1.34876 | 1.34796 | 1.34712 | 1.34624 | 1.34528 | 1.34432 | 1.34333 | 1.34232
c1 = 1.485 | 1.35799 | 1.35719 | 1.35636 | 1.35547 | 1.35455 | 1.35358 | 1.35259 | 1.35156 | 1.35053
c1 = 1.983 | 1.3663 | 1.36544 | 1.36454 | 1.36361 | 1.36264 | 1.36164 | 1.36061 | 1.35958 | 1.35853
c1 = 2.476 | 1.37433 | 1.37341 | 1.37246 | 1.37149 | 1.37049 | 1.36949 | 1.36845 | 1.36735 | 1.36627
c1 = 3.063 | 1.38382 | 1.38284 | 1.3818 | 1.38074 | 1.3797 | 1.37866 | 1.37755 | 1.37643 | 1.37534

CC(N)C(=O)[O-].[K+] (stereo not drawn) [potassium DL-alaninate] + O
refractive index
Conditions | 303.15 K | 308.15 K | 313.15 K | 318.15 K | 323.15 K | 328.15 K | 333.15 K | 338.15 K | 343.15 K
c1 = 0.526 | 1.3409 | 1.34021 | 1.33947 | 1.33867 | 1.33782 | 1.33692 | 1.33599 | 1.335 | 1.33402
c1 = 1.009 | 1.34955 | 1.3488 | 1.34802 | 1.3472 | 1.34634 | 1.34542 | 1.34446 | 1.34349 | 1.34248
c1 = 1.501 | 1.35822 | 1.35743 | 1.35661 | 1.35576 | 1.35486 | 1.35394 | 1.35299 | 1.352 | 1.35098
c1 = 2.005 | 1.36647 | 1.36566 | 1.36481 | 1.36391 | 1.363 | 1.36206 | 1.3611 | 1.3601 | 1.3591
c1 = 2.501 | 1.37461 | 1.37375 | 1.37285 | 1.37195 | 1.37103 | 1.37004 | 1.36904 | 1.36803 | 1.36701
c1 = 2.986 | 1.38281 | 1.38192 | 1.38098 | 1.38002 | 1.37908 | 1.37809 | 1.3771 | 1.3761 | 1.37507
c1 = 3.498 | 1.39058 | 1.38964 | 1.3887 | 1.38775 | 1.38677 | 1.38576 | 1.38471 | 1.38364 | 1.38259
